Assay results published in PubChem BioAssay AID1117345.
Calls of active or inactive are those of the source. The rule behind the calls is not given here.

System: STC-1 cells GLP-1 secretion
Experiment: dose-response assay, glucagon-like peptide-1 release in STC-1 line, potency as half-maximal inhibitory concentration (AID 1117345)

SMILES	IC50
CCCCCCCCCCCC(=O)[O][Sn]([CH2]CCC)([CH2]CCC)[O]C(=O)CCCCCCCCCCC	> 40 µM (inactive)
Cc1ccc([N+](=O)[O-])[c]2c1[O][Hg]2	0.0972 µM
CCCCCCCCCCCCCC[N+](C)(C)C	> 40 µM (inactive)
OCCN1CCN(CC/C=C2/c3ccccc3Sc3ccc(C(F)(F)F)cc32)CC1	> 40 µM (inactive)
CC(=O)[O][Hg][c]1ccccc1	0.713 µM
